Data published in patent publication EP4467141A1, “PYRAZOLO-QUINOLINES AS SELECTIVE INHIBITORS OF GENOTOXIC STRESS-INDUCED IKK/NF- KB PATHWAYS FOR CANCER THERAPY” (Max-Delbrück-Centrum für Molekulare Medizin in der …, priority 2023, dated 2024).
“Also recorded” adds a separate entry of the source. Like-named read-outs stand apart in the source and are kept apart here.

Experiments:
[1] = target: T1, CLK2 (Homo sapiens, UniProt P49760); test: Kinase panel study; format: biochemical; details: for inhibition at 1 µM: 1000nM; for IC50: in vitro kinase panel
T1 construct: purchased Thermo Fisher Scientific
T1 sequence (P49760 whole entry): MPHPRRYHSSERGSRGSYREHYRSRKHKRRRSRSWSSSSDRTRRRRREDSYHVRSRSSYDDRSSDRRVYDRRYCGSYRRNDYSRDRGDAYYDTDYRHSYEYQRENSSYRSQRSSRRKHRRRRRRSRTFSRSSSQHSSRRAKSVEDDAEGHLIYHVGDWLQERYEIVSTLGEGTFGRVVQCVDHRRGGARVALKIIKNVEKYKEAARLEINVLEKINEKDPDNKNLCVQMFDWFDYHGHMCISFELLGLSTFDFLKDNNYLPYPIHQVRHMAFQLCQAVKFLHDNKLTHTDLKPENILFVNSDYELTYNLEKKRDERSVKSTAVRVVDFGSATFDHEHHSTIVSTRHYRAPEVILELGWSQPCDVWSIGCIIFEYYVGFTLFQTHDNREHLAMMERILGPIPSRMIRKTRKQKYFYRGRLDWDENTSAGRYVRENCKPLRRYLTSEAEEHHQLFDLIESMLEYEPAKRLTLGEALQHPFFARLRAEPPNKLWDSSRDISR
Description: (§1) The Kinase panel study was entirely provided by Thermo Fisher Scientific using the two lead compounds MW01 and MW05 as well as their derivatives (MW01-E06, MW01-E10, MW01-E14, MW01-E18, MW05-E2, MW05-E3, MW05-E9 and MW05-E10. The experiment was performed using the ZLyte or Adapta protocol according to manufacturer standard operating procedures.
(§2) Based on their similar effects in our screen and molecular analysis, MW01 and MW05 were used in comparative target deconvolution studies seeking common targets despite their distinct structures. To eliminate previously identified kinases regulating NF-κB activity, such as IKK, as possible targets of MW01 and MW05, an in vitro kinase inhibition assay was performed. […] We next investigated if any of the shared kinase targets of MW01 and MW05 play a role in genotoxic stress-induced NF-κB activity and established several criteria to narrow down pathway-relevant targets. Considering the similar NF-κB inhibition phenotypes of both compounds, we hypothesized first that the target should be shared by both lead compounds. Second, based on the CaCo2 recovery values and experimental treatment concentration of 10 µM), the putative target kinase should have a low IC50 of, at most, 2000 nM for both lead compounds in the in vitro kinase panel (Fig. 2A). Based on these criteria alone, we arrived at a relatively short list of potential targets for further analysis, leaving only PIK3CG, PIK3C2G, and CLK2 (Fig. 2B). IC50 values for PIK3C2G by both lead compounds agreed best with these criteria, but RNA expression analysis indicates high tissue specificity as well as lack of expression of this kinase in our U2-OS model cell line, which we then eliminated from further analysis (Uhlén et al., 2015). […] Table 6: Percentage of inhibition of the indicated kinases by MW01 or MW05 at either 10 µM or 1 µM. n.d. = not determined. […]
(§3) To validate the structural backbones of MW01 and MW05 and leverage additional structures in discerning on- and off-target activity, we screened more than 30 structural derivatives for similar NF-κB pathway inhibition compared to our lead compounds following irradiation or TNF stimulation (Table 1 and 2). Several structural derivatives of each lead compound were identified which reduced p-p65 and NFKBIA expression in an irradiation-specific manner. (Fig 3A, B, C, Fig. 8). […] As expected for structurally similar derivatives, kinase inhibition profiles of active derivatives were similar to the respective lead compounds, validating the common structural backbones of each as kinase inhibitors. However, inhibition of several kinases was lost some derivatives of MW01 and MW05, including PI3K isoforms, adding further evidence that the NF-κB inhibition by our compounds is not mediated by inhibition of these kinases. […] Considering the phenotypic similarity between two structurally distinct lead compounds, the agreement of the derivatives with our kinase IC50 criteria, and significant results following siRNA knockdown of CLK2 and CLK4, we proceeded to further characterize our lead compounds.

[2] = target: T2, CLK4 (Homo sapiens, UniProt Q9HAZ1); test: Kinase panel study; format: biochemical
T2 construct: purchased Thermo Fisher Scientific
T2 sequence (Q9HAZ1 whole entry): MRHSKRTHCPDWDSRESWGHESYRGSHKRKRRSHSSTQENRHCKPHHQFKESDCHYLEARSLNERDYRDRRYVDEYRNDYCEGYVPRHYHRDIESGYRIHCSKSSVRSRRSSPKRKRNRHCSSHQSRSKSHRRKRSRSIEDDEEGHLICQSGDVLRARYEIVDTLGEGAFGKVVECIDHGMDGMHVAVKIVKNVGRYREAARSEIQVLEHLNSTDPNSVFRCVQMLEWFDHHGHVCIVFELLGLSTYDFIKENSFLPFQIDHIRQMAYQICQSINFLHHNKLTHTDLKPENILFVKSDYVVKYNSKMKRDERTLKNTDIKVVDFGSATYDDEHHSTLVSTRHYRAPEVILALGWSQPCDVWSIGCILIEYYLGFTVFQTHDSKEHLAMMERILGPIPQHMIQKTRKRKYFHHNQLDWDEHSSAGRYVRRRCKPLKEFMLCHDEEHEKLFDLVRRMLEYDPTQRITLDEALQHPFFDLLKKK
Description: as §1, §2, §3

[3] = tested on: NF-κB subunit p65 phosphorylation (S536); test: Western blot of p65 phosphorylation (S536) after DNA damage (irradiation or etoposide) in U2-OS cells; format: cell-based; details: for phosphorylation of p65 at serine 536 after DNA damage: 1-hour pre-treatment, irradiation (IR, 20 Gy), 90 min; for activity in cell-based NF-κB activation assays: 10 µM, p65 phosphorylation and NFKBIA expression after irradiation
Description: Fig.1: Identification of inhibitors specific for DNA damage-induced NF-κB activity. (A) Flowchart representing the high-throughput chemical library screening. A screen/counter-screen strategy was used by stimulating NF-κB in U2-OS cells with etoposide (50 µM for 90 min) and hits were counter-screened with TNFα (10 ng/ml for 20 min). Cells were pre-treated with compounds (10 µM) for 1 hour before stimulation, fixed, and percent p65 nuclear translocation measured by fluorescence microscopy. IC50 values were used for final selection. (B) Comparison of mean p65 nuclear translocation following either etoposide or TNFa stimulation after treatment with each counter-screened hit compound. Values were normalized to etoposide or TNFα positive controls. Specific inhibitors (red) of DNA damage-induced NF-κB signaling were defined by setting cut-off criteria (black line). […] (C) IC50 determination for MW01 (left) and MW05 (right) of p65 nuclear translocation, following either etoposide or TNFα treatment. […] IC50 noted with a dotted line. (D) Structures of compounds selected as leads for further analysis, MW01 (5-Hydroxy-10,11-dimethoxy-9H-benzo[c]indolo[3,2,1-ij][1,5]naphthyridin-9-one) and MW05 (3-Amino-7-methoxypyrazolo[3,4-b]quinolin-1-yl)-[3-(dimethylamino)phenyl]methanone). (E) Western blot analysis (top) and quantification (bottom) of NF-κB subunit p65 phosphorylation (S536) following 1-hour pre-treatment with DMSO, MW01 (10 µM), or MW05 (10 µM), in unstimulated, after 90 min irradiation (IR, 20 Gy), or after 20 min TNFα (10 ng/mL) conditions in U2- OS cells. B-actin was used as loading control after. The p-p65 signal was first normalized to β-actin loading control per sample, then each value to DMSO-treated unstimulated to evaluate relative activation of NF-κB. Ns: not significant; ***: p<0.001.
NF-κB was stimulated by DNA damage through either 20 Gy irradiation (IR) and analyzed after 90 minutes or by 10 ng/ml TNFα and analyzed after 20 minutes unless otherwise noted.
All compounds were pre-treated for 1-hour prior to NF-κB stimulation unless otherwise noted.
Cells were collected by scraping and lysed in Baeuerle lysis buffer supplemented with Protease (Thermo Fisher Scientific, 78429) and Phosphatase (Thermo Fisher Scientific, 78420) inhibitors after the appropriate treatment and time point. Proteins were quantified by Bradford assay (Bio-Rad, 5000006) and 20-50 µg of extracted proteins were loaded on 4-20% Protein Gel (Bio-Rad, 4568096) and then transferred onto a PVDF membrane (Bio-Rad, 1620177) using Tris-Glycine buffer with 20% of methanol. Blocking was performed for 1h with 5% not-fat dry milk in PBS 1X. Immunodetection was obtained using primary and secondary antibodies reported in Key Resources Table. The membranes were analyzed by ECL (Thermo Fisher Scientific, 34580) and detected by ChemiDoc XRS+ (Bio-Rad) using ImageLab software (Bio-Rad).

[4] = first CLK2 line of the table, read-out: Percentage of inhibition
[5] = second CLK2 line of the table, read-out: Percentage of inhibition
[6] = 10000nM, first CLK2 line of the table, read-out: Percentage of inhibition
[7] = 10000nM, second CLK2 line of the table, read-out: Percentage of inhibition
[8] = 10000nM, read-out: Percentage of inhibition
[9] = CLK2, compound at 10µM, read-out: % of Inhibition
[10] = CLK4, compound at 10µM, read-out: % of Inhibition

| inhibition at 10 µM [1, 9] [%] | inhibition at 10 µM [2, 10] [%] | CLK2 inhibition ([1]; in vitro kinase assay) | SMILES | inhibition at 1 µM [1, 4] [%] | inhibition at 1 µM [1, 5] [%] | inhibition at 10 µM [1, 6] [%] | inhibition at 10 µM [1, 7] [%] | IC50 [1] [nM] | inhibition at 10 µM [2, 8] [%] | phosphorylation of p65 at serine 536 after DNA damage [3] | activity in cell-based NF-κB activation assays [3] |
| --- | --- | --- | --- | --- | --- | --- | --- | --- | --- | --- | --- |
|  |  |  | COc1ccc2c(c1OC)c(=O)n1c3ccc(O)cc3c3ccnc2c31 [MW01, 5-Hydroxy-10,11-dimethoxy-9H-benzo[c]indolo[3,2,1-ij][1,5]naphthyridin-9-one] | 78 | 78 | 91 | 91 | 360 | 91 | significantly reduced |  |
|  |  |  | COc1ccc2cc3c(N)nn(C(=O)c4cccc(N(C)C)c4)c3nc2c1 [MW05, (3-Amino-7-methoxypyrazolo[3,4-b]quinolin-1-yl)-[3-(dimethylamino)phenyl]methanone] | 40 | 40 | 86 | 72 | 1440 | 94 | significantly reduced |  |
| 18 | 58 |  | COc1ccc2c(c1)c1ccnc3c4nc(OC)ccc4c(=O)n2c13 [MW01-E6, 5,15-dimethoxy-1,11,14-triazapentacyclo[10.7.1,0^2,7.0^8,^20.0^13,^18]icosa-2(7),3,5,8(20),9,11,13(18),14,16-nonaen-19-one] |  |  |  |  |  |  |  | inactive |
| 70 | 98 |  | O=c1c2cnccc2c2nccc3c4cc(O)ccc4n1c32 [MW01-E18, 5-hydroxy-1,11,16-triazapentacyclo[10.7.1.0^2,^7.0^8,^20.0^13,^18]icosa-2(7),3,5,8(20),9,11,13(18),14,16-nonaen-19-one] |  |  |  |  |  |  |  |  |
| 20 | 67 |  | COc1ccc2c(c1)c1ccnc3c4ccnc(OC)c4c(=O)n2c13 [MW01-E14, 5,17-dimethoxy-1,11,16-triazapentacyclo[10.7.1.0^2,^7.0^8,^20.0^13,^18]icosa-2(7),3,5,8(20),9,11,13(18),14,16-nonaen-19-one] |  |  |  |  |  |  |  | inactive |
| 74 | 75 | inhibited CLK2 | COc1ccc2nc3c(cc2c1)c(N)nn3C(=O)c1cccc(N(C)C)c1 [MW05-E2, 1-[3-(dimethylamino)benzoyl]-6-methoxy-1H-pyrazolo[3,4-b]quinolin-3-amine] |  |  |  |  |  |  |  | inactive; also recorded: lacking activity |
| 70 | 99 |  | O=c1c2cc(O)ccc2c2nccc3c4cc(O)ccc4n1c32 [MW01-E10, 5,16-dihydroxy-1,11-diazapentacyclo[10.7.1.0^2,^7.0^8,^20.0^13,^18]icosa-2(7),3,5,8(20),9,11,13(18),14,16-nonaen-19-one] |  |  |  |  |  |  |  |  |
